Values of other authors, collected in article PMC9127186, “Molecular Basis Underlying Hepatobiliary and Renal Excretion of Phenolic Acids of Salvia miltiorrhiza Roots (Danshen)” (Frontiers in Pharmacology, 2022).

Legend:
[1] = molecular target: T1, human OATP1B1 (Homo sapiens, UniProt Q9Y6L6); design: method as in Cao et al. (2019); details: ref Cao et al. (2019); cited from earlier work
T1 sequence (Q9Y6L6 1-691): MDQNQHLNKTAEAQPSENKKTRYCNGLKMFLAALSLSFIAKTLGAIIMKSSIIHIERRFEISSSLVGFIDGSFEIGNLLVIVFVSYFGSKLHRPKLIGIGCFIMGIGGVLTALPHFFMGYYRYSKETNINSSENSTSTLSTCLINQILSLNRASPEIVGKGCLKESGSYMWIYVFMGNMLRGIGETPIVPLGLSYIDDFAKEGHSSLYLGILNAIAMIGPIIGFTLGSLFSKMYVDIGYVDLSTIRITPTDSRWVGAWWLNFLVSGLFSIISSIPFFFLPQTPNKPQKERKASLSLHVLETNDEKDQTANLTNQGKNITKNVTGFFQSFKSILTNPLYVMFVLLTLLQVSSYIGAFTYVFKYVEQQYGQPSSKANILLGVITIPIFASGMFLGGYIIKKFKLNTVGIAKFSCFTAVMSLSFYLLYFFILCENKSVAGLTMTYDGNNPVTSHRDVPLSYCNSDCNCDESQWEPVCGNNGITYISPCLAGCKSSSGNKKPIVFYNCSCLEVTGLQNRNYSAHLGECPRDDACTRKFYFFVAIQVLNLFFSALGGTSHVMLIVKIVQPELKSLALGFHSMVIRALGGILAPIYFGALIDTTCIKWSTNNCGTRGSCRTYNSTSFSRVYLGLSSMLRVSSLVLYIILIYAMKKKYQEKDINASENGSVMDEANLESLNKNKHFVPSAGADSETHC

[2] = molecular target: T2, human OAT1 (Homo sapiens, UniProt Q4U2R8); design: method as in Kang et al. (2021); details: ref Kang et al. (2021); cited from earlier work
T2 sequence (Q4U2R8 1-563): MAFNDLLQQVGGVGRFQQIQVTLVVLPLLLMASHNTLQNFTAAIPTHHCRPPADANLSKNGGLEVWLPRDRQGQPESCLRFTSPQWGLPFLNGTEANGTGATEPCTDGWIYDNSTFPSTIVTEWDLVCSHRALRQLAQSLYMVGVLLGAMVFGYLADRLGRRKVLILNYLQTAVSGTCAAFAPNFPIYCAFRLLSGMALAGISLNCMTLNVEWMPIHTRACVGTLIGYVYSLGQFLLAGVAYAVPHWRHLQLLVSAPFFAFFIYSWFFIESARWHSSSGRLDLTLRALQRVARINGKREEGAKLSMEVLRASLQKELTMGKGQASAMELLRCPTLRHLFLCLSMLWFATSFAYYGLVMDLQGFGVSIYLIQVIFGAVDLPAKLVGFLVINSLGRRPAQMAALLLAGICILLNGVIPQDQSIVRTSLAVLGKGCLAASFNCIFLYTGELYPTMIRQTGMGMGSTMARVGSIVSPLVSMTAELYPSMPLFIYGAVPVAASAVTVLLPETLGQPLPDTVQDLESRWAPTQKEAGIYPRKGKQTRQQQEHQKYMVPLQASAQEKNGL

Row | Compound | substrate of human OATP1B1 [1] | substrate of human OAT1 [2]
1 | salvianolic acid B | substrate | 
2 | O=C(/C=C/c1ccc(O)c(O)c1)O[C@H](Cc1ccc(O)c(O)c1)C(=O)O [Rosmarinic acid, rosmarinic acid] |  | substrate
